According to the supplement of paper PMC5770543:
± gives the standard deviation.

Key:
[1] = system: Toxoplasma gondii RH tachyzoites; assay: median egress time after A23187 ionophore; higher = stronger egress inhibition; conditions: 10 µM; pretreatment time: 24 h
Description: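 T. gondii RH tachyzoites expressing firefly luciferase were grown in HFF monolayers for 48 h with compound. % growth inhibition at 10 µM and EC50 (2-fold dilutions from 10 µM) were read by luminescence relative to 1% DMSO; EC50 listed as 10 (not determined, <80% inhibition) is left out. Plaque assays: 50 tachyzoites per well with 10 µM compound for 8-10 days, giving plaque count and area by crystal violet/ImageJ. Egress: median time to egress after 1 µM A23187 ionophore following 24 h of 10 µM compound (DMSO ~1.8 min; >10 = no egress within 10 min).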

[2] = system: Toxoplasma gondii RH tachyzoites; assay: % growth inhibition vs DMSO (48 h luciferase); higher = more inhibition; conditions: 10 µM
[3] = system: Plasmodium falciparum KH004-003 (artemisinin resistant); assay: R50 (50% reduction of ring formation, egress/invasion); higher = less potent
Description: (§1)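 P. falciparum asexual blood stages. EC50: sorbitol-synchronized 3D7 rings were treated with 2-fold dilutions from 10 µM for 60 h, with parasitemia read by SYBR Green I fluorescence; EC50 listed as 10 means not determined and is left out. Stage transition screen: ~40-42 hpi schizonts were treated at 1, 3 and 10 µM; new rings were counted by Hoechst flow cytometry and % inhibition is relative to DMSO controls (mean of 3 experiments). R50: concentration giving 50% reduction of new ring formation versus DMSO in 3D7, K1 and KH004-003, from flow cytometry after 12-20 h treatment of schizonts.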

[4] = system: Plasmodium falciparum 3D7; assay: as above
Description: as §1

[5] = system: Plasmodium falciparum K1 (chloroquine resistant); assay: as above
Description: as §1

[6] = system: Toxoplasma gondii RH tachyzoites; assay: plaque count per well; higher = less inhibition; extreme values may be limits of the assay; conditions: 10 µM; 8-10 days
Procedure, shortened: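 Compound at 10 µM was preseeded onto confluent HFF monolayers in six-well plates, which then received fifty T. gondii RH tachyzoites per well and were left undisturbed for 8 to 10 days. Fixation with methanol and staining with crystal violet followed, and ImageJ was used to image and count plaques in each well. These counts serve as a readout of delayed-death inhibition of parasite growth.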

[7] = system: Plasmodium falciparum 3D7; assay: EC50 growth inhibition (60 h, SYBR Green); conditions: stage: ring-stage start
[8] = system: Plasmodium falciparum 3D7; assay: % inhibition of schizont-to-ring transition vs DMSO; higher = more inhibition
Procedure, shortened: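 Tightly synchronised P. falciparum schizonts (about 40–42 hours post-invasion, 1% parasitemia, 2.5% hematocrit, AlbuMAX-supplemented RPMI) were exposed to compound at 1, 3 or 10 µM, with vehicle and positive controls. Cells were glutaraldehyde-fixed, Triton-permeabilised, stained with Hoechst 33342 and counted by flow cytometry (at least 100,000 events). Schizont-to-ring transition inhibition is new ring formation relative to vehicle controls, averaged over three experiments.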
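Wherever % growth inhibition vs DMSO (48 h luciferase) is given: tested in triplicate wells of 96-well plates on confluent HFF monolayers, with 1% DMSO wells as negative control in four replicates.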

CC(C)(C)c1ccc(O)c(CNC2CCCCC2)c1
median egress time [1]: 2.8 min
% growth inhibition [2]: 7.99 ± 2.4%
R50 [3]: 0.215 µM
R50 [4]: 0.305 µM
R50 [5]: 0.119 µM
plaque count per well [6]: 0
EC50 growth inhibition [7]: 93.3 nM
% inhibition of schizont-to-ring transition ([8]; 1 µM): 70.4%
% inhibition of schizont-to-ring transition ([8]; 3 µM): 76.8%
% inhibition of schizont-to-ring transition ([8]; 10 µM): 76.9%

COc1cc(OC)c(N(C)C(=O)c2cc3c(s2)-c2ccccc2S(=O)(=O)C3)cc1Cl
median egress time [1]: 8.4 min
% growth inhibition [2]: < 0%
R50 [3]: 0.352 µM
R50 [4]: 0.868 µM
R50 [5]: 0.933 µM
plaque count per well [6]: 33
EC50 growth inhibition [7]: 1190 nM
% inhibition of schizont-to-ring transition ([8]; 1 µM): 55.9%
% inhibition of schizont-to-ring transition ([8]; 3 µM): 60%
% inhibition of schizont-to-ring transition ([8]; 10 µM): 66.3%

CCOc1c(Cl)cc(CNC(C)C(O)c2ccccc2)cc1OC (stereo not drawn)
median egress time [1]: 3.47 min
% growth inhibition [2]: 18.8 ± 18%
R50 [3]: 2.58 µM
R50 [4]: 3.32 µM
R50 [5]: 1.56 µM
plaque count per well [6]: 0
EC50 growth inhibition [7]: 926 nM
% inhibition of schizont-to-ring transition ([8]; 1 µM): 2.61%
% inhibition of schizont-to-ring transition ([8]; 3 µM): 19.5%
% inhibition of schizont-to-ring transition ([8]; 10 µM): 72.7%

Cc1cc(NC(=O)C2c3ccccc3C(=O)N(CC(C)C)C2c2cccs2)no1 (stereo not drawn)
median egress time [1]: 5.73 min
% growth inhibition [2]: < 0%
R50 [3]: 0.43 µM
R50 [4]: 0.363 µM
R50 [5]: 0.307 µM
plaque count per well [6]: 29
EC50 growth inhibition [7]: 64 nM
% inhibition of schizont-to-ring transition ([8]; 1 µM): 76.6%
% inhibition of schizont-to-ring transition ([8]; 3 µM): 76.8%
% inhibition of schizont-to-ring transition ([8]; 10 µM): 78.6%

O=C(NC1CCN(Cc2ccccc2)CC1)c1cc(C(=O)NC2CCN(Cc3ccccc3)CC2)cc(C(=O)NC2CCN(Cc3ccccc3)CC2)c1
median egress time [1]: 2.33 min
% growth inhibition [2]: 18.9 ± 16%
R50 [3]: 1.42 µM
R50 [4]: 3.38 µM
R50 [5]: 0.179 µM
plaque count per well [6]: 35
EC50 growth inhibition [7]: 1670 nM
% inhibition of schizont-to-ring transition ([8]; 1 µM): 25.8%
% inhibition of schizont-to-ring transition ([8]; 3 µM): 30.4%
% inhibition of schizont-to-ring transition ([8]; 10 µM): 53.7%

CCN(Cc1ccccc1)C1CCN(Cc2cc(Br)ccc2O)CC1
median egress time [1]: > 10 min
% growth inhibition [2]: < 0%
R50 [3]: 0.532 µM
R50 [4]: 0.998 µM
R50 [5]: 0.491 µM
plaque count per well [6]: 24
EC50 growth inhibition [7]: 310 nM
% inhibition of schizont-to-ring transition ([8]; 1 µM): 59.3%
% inhibition of schizont-to-ring transition ([8]; 3 µM): 74.2%
% inhibition of schizont-to-ring transition ([8]; 10 µM): 76.9%

COc1cccc(C2(C)Nc3ccccc3-c3nc4ccccc4n32)c1 (stereo not drawn)
median egress time [1]: > 10 min
% growth inhibition [2]: 12.6 ± 12%
R50 [3]: 0.715 µM
R50 [4]: 1.13 µM
R50 [5]: 1.17 µM
plaque count per well [6]: 21
EC50 growth inhibition [7]: 217 nM
% inhibition of schizont-to-ring transition ([8]; 1 µM): 66%
% inhibition of schizont-to-ring transition ([8]; 3 µM): 81.1%
% inhibition of schizont-to-ring transition ([8]; 10 µM): 81.2%

CC(=O)NCCc1nc2ccccc2n1Cc1ccc(C(C)C)cc1
median egress time [1]: 5.47 min
% growth inhibition [2]: < 0%
R50 [3]: 3.03 µM
R50 [4]: 3.03 µM
R50 [5]: 3.69 µM
plaque count per well [6]: 33
EC50 growth inhibition [7]: 900 nM
% inhibition of schizont-to-ring transition ([8]; 1 µM): 37.3%
% inhibition of schizont-to-ring transition ([8]; 3 µM): 61%
% inhibition of schizont-to-ring transition ([8]; 10 µM): 78.1%

CCOC(=O)c1c(NC(=O)c2ccccc2)sc2c(O)c(CN(CC)CC)ccc12
median egress time [1]: 2.13 min
% growth inhibition [2]: 65.8 ± 12%
R50 [3]: 0.138 µM
R50 [4]: 0.186 µM
R50 [5]: 0.103 µM
EC50 growth inhibition [7]: 8.57 nM
% inhibition of schizont-to-ring transition ([8]; 1 µM): 57.2%
% inhibition of schizont-to-ring transition ([8]; 3 µM): 69.3%
% inhibition of schizont-to-ring transition ([8]; 10 µM): 71.9%

COc1cccc(NC(=O)[C@H](C(C)C)n2c(=O)[nH]c3ccccc3c2=O)c1
median egress time [1]: 2.67 min
% growth inhibition [2]: 76.9 ± 9.3%
R50 [3]: 0.183 µM
R50 [4]: 0.28 µM
R50 [5]: 0.212 µM
EC50 growth inhibition [7]: 51.4 nM
% inhibition of schizont-to-ring transition ([8]; 1 µM): 79.8%
% inhibition of schizont-to-ring transition ([8]; 3 µM): 80.5%
% inhibition of schizont-to-ring transition ([8]; 10 µM): 79.4%
